# Measured values from patent publication US8877759B2, “Aminopyrazines as ATR kinase inhibitors” (Vertex Pharnaceuticals Incorporated, priority 2011, dated 2014).
# Molecular target: T1, full-length ATR (Homo sapiens, UniProt Q13535)
# T1 construct: Assays were carried out at 25° C. in the presence of 5 nM full-length ATR
# Experiment: ATR Inhibition Assay (radioactive-phosphate incorporation)
# Type: biochemical
# Conditions: for ATR Ki: Ki(app), 5 nM full-length ATR, 10 μM [γ-33P]ATP, 800 μM target peptide, 25° C.
# Description: Compounds were screened for their ability to inhibit ATR kinase using a radioactive-phosphate incorporation assay. Assays were carried out in a mixture of 50 mM Tris/HCl (pH 7.5), 10 mM MgCl2 and 1 mM DTT.
# Assays were carried out at 25° C. in the presence of 5 nM full-length ATR. An assay stock buffer solution was prepared containing all of the reagents listed above, with the exception of ATP and the test compound of interest. […] The plate was pre-incubated for 10 minutes at 25° C. and the reaction initiated by addition of 15 μL [γ-33P]ATP (final concentration 10 μM).
# The reaction was stopped after […] by the addition of 30 μL 0.1M phosphoric acid containing 2 mM ATP. A multiscreen phosphocellulose filter 96-well plate (Millipore, Cat no. MAPHN0B50) was pretreated with 100 μL 0.2M phosphoric acid prior to the addition of 45 μL of the stopped assay mixture. The plate was washed with 5×200 μL 0.2M phosphoric acid.
# After removing mean background values for all of the data points, Ki(app) data were calculated from non-linear regression analysis of the initial rate data using the Prism software package (GraphPad Prism version 3.0cx for Macintosh, GraphPad Software, San Diego Calif., USA).
# T1 sequence (Q13535 whole entry): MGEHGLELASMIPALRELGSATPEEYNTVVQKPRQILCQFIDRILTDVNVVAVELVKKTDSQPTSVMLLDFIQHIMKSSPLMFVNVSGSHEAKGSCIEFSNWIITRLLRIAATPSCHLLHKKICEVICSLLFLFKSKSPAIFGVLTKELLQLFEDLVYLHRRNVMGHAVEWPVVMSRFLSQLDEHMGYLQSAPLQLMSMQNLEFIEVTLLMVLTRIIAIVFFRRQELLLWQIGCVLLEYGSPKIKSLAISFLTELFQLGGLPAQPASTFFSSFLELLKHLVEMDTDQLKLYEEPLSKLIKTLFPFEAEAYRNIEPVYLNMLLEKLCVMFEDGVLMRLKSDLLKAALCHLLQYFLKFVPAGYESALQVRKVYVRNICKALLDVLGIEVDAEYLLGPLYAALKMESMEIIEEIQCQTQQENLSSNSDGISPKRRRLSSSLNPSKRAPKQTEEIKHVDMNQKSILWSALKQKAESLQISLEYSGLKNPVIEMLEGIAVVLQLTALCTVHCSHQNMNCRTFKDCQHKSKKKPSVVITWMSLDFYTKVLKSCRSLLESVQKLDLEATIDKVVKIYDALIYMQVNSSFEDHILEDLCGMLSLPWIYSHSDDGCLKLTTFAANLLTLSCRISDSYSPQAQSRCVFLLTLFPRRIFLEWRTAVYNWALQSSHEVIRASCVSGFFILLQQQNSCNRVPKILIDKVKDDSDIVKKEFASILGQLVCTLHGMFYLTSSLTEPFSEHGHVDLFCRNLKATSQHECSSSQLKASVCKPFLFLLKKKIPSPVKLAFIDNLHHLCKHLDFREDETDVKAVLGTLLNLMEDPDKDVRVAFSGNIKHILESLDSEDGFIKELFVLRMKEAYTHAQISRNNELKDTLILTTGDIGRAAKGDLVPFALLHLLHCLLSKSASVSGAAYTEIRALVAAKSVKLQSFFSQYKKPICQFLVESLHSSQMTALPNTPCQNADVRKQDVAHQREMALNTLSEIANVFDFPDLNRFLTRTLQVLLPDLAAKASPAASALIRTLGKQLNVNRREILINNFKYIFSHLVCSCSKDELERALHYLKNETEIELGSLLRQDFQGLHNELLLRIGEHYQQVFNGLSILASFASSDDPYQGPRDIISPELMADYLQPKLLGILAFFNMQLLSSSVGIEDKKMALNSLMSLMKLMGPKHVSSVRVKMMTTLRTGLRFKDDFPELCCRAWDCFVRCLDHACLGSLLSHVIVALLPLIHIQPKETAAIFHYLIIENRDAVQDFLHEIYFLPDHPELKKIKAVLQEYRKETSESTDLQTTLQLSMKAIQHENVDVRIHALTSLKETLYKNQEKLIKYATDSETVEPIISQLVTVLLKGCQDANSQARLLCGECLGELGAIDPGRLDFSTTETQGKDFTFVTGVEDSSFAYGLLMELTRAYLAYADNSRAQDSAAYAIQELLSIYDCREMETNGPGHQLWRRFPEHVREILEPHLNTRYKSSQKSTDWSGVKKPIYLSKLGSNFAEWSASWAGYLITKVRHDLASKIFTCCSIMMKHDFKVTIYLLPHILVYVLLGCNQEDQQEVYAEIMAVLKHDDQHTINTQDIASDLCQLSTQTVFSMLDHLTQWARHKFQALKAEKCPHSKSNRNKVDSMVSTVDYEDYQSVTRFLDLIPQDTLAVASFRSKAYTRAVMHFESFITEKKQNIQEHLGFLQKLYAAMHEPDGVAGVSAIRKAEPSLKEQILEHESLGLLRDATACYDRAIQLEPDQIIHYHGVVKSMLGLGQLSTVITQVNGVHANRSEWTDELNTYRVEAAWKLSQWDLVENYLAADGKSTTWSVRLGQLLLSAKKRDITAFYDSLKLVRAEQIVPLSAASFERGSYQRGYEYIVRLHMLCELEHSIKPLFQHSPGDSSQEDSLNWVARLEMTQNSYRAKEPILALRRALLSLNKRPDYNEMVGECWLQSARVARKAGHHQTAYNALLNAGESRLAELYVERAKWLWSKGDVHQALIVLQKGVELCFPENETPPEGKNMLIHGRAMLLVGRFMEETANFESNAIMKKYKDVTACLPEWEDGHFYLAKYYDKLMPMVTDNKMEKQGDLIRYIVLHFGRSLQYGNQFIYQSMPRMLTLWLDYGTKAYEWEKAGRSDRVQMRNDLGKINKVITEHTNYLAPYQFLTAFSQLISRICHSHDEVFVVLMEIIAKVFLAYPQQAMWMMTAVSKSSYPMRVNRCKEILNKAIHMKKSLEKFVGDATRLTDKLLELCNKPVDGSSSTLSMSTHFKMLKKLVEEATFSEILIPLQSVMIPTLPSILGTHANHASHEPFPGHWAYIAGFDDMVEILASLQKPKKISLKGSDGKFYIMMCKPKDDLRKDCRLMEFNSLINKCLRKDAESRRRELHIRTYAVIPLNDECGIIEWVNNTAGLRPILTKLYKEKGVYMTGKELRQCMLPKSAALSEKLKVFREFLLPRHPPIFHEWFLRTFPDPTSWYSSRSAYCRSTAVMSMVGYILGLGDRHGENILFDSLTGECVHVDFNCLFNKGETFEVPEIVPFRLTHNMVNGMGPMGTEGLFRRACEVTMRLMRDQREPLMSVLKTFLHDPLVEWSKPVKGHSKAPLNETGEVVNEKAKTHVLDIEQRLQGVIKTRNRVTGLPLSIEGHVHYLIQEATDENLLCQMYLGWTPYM
smiles,measurement,value
"N#CC1(c2cc(-c3cnc(N)c(-c4cc(-c5ccc(CO)cc5)no4)n3)ccn2)CCNCC1 [Compound I-31, 4-[4-[5-amino-6-[3-[4-(hydroxymethyl)phenyl]isoxazol-5-yl]pyrazin-2-yl]-2-pyridyl]piperidine-4-carbonitrile]",ATR Ki,+++ (Compounds with a Ki value >5 nM but ≦1 nM are marked with “+++.”)
"N#CC1(c2cc(-c3cnc(N)c(-c4cc(-c5ccc(O)cc5)no4)n3)ccn2)CCNCC1 [Compound I-32, 4-[4-[5-amino-6-[3-(4-hydroxyphenyl)isoxazol-5-yl]pyrazin-2-yl]-2-pyridyl]piperidine-4-carbonitrile]",ATR Ki,+++ (Compounds with a Ki value >5 nM but ≦1 nM are marked with “+++.”)
"N#CC1(c2cc(-c3cnc(N)c(-c4cc(-c5ccc6[nH]ccc6c5)no4)n3)ccn2)CCNCC1 [Compound I-33, 4-[4-[5-amino-6-[3-(1H-indol-5-yl)isoxazol-5-yl]pyrazin-2-yl]-2-pyridyl]piperidine-4-carbonitrile]",ATR Ki,+++ (Compounds with a Ki value >5 nM but ≦1 nM are marked with “+++.”)
"N#CC1(c2cc(-c3cnc(N)c(-c4cc(-c5ccc(CN[C@H]6CCOC6)cc5)no4)n3)ccn2)CC1 [Compound I-34, 1-[4-[5-amino-6-[3-[4-[[[(3S)-tetrahydrofuran-3-yl]amino]methyl]phenyl]isoxazol-5-yl]pyrazin-2-yl]-2-pyridyl]cyclopropanecarbonitrile]",Ki,< 1 nM
"N#CC1(c2cc(-c3cnc(N)c(-c4cc(-c5ccc(CN[C@H]6CCOC6)cc5)no4)n3)ccn2)CCC1 [Compound I-35, 1-[4-[5-amino-6-[3-[4-[[[(3S)-tetrahydrofuran-3-yl]amino]methyl]phenyl]isoxazol-5-yl]pyrazin-2-yl]-2-pyridyl]cyclobutanecarbonitrile]",Ki,< 1 nM
"N#CC1(c2cc(-c3cnc(N)c(-c4cc(-c5ccc(CN[C@H]6CCOC6)cc5)no4)n3)ccn2)CCCC1 [Compound I-36, 1-[4-[5-amino-6-[3-[4-[[[(3S)-tetrahydrofuran-3-yl]amino]methyl]phenyl]isoxazol-5-yl]pyrazin-2-yl]-2-pyridyl]cyclopentanecarbonitrile]",Ki,< 1 nM
"CN1CCCC(C#N)(c2cc(-c3cnc(N)c(-c4cc(-c5ccccc5)no4)n3)ccn2)C1 (stereo not drawn) [Compound I-37, 3-[4-[5-amino-6-(3-phenylisoxazol-5-yl)pyrazin-2-yl]-2-pyridyl]-1-methyl-piperidine-3-carbonitrile]",Ki,< 1 nM
"COCCNC(=O)C(C)(C)c1cc(-c2cnc(N)c(-c3cc(-c4ccccc4)no3)n2)ccn1 [Compound I-38, 2-[4-[5-amino-6-(3-phenylisoxazol-5-yl)pyrazin-2-yl]-2-pyridyl]-N-(2-methoxyethyl)-2-methyl-propanamide]",Ki,5 to 20 nM
"CN(C)C(=O)C(C)(C)c1cc(-c2cnc(N)c(-c3cc(-c4ccccc4)no3)n2)ccn1 [Compound I-39, 2-[4-[5-amino-6-(3-phenylisoxazol-5-yl)pyrazin-2-yl]-2-pyridyl]-N,N,2-trimethyl-propanamide]",ATR Ki,+++ (Compounds with a Ki value >5 nM but ≦1 nM are marked with “+++.”)
"CC(C)(C(=O)NCCCN)c1cc(-c2cnc(N)c(-c3cc(-c4ccccc4)no3)n2)ccn1 [Compound I-40, 2-[4-[5-amino-6-(3-phenylisoxazol-5-yl)pyrazin-2-yl]-2-pyridyl]-N-(3-aminopropyl)-2-methyl-propanamide]",ATR Ki,+++ (Compounds with a Ki value >5 nM but ≦1 nM are marked with “+++.”)
"CC(C)(C#N)c1cc(-c2cnc(N)c(-c3cc(-c4ccc(C5CNCCN5)cc4)no3)n2)ccn1 (stereo not drawn) [Compound I-41, 2-[4-[5-amino-6-[3-(4-piperazin-2-ylphenyl)isoxazol-5-yl]pyrazin-2-yl]-2-pyridyl]-2-methyl-propanenitrile]",Ki,< 1 nM
"N#CC1(c2cc(-c3cnc(N)c(-c4cc(-c5ccc(CN[C@H]6CCOC6)cc5)no4)n3)ccn2)CCOCC1 [Compound I-42, 4-[4-[5-amino-6-[3-[4-[[[(3S)-tetrahydrofuran-3-yl]amino]methyl]phenyl]isoxazol-5-yl]pyrazin-2-yl]-2-pyridyl]tetrahydropyran-4-carbonitrile]",Ki,< 1 nM
